Read-outs that look alike come from different tables or passages of the source.
Legend:
KRAS G12V = KRAS G12V (Homo sapiens (Human), UniProt P01116, G12V); assay: KRAS G12V degradation in SW620 cells (Western blot, DC50); type: cell-based; details: 24 hours
Procedure: SW620 (KRAS G12V homozygous), AsPC1 (KRAS G12D homozygous), MIA PaCa2 (KRAS G12C homozygous), A549 (KRAS G12S homozygous) and MCF7 (KRAS WT) cells were obtained from American Type Culture Collection (ATCC). […] The following day, the test compound was administered to the cells by using 1000× compound stock solution prepared in DMSO at various concentrations. After administration of the compound, the cells were then incubated at 37° C. for 24 hours. Upon completion, the cells were washed with PBS and protein was collected in Laemmli sample buffer (1×; VWR International). Proteins in cell lysate were separated by SDS-PAGE and transferred to Odyssey nitrocellulose membranes (Licor) with iblot® dry blotting transfer system (ThermoFisher). Nonspecific binding was blocked by incubating membranes with Intercept Blocking Buffer (Licor) for 1 hour at room temperature with gentle shaking. […] After washing 3 times with TBS-T, the membranes were incubated with IRDye® 800CW goat anti-rabbit IgG (1:20,000, Licor) and IRDye® 680RD goat anti-mouse IgG (1:20,000, Licor) for 1 hour. After TBS-T washes, membranes were rinsed in TBS and Western blot images were acquired by Odyssey CLx (LI-COR Biosciences).
The signal intensity of target proteins was calculated using ImageStudio software. KRAS fluorescent intensity (FLU) from DMSO (vehicle) treatment was set as 100%. Relative KRAS expression level was determined by the following formula: […]
The percentage of KRAS expression was calculated using Microsoft Excel. The half-maximal degradation concentration (DCso) values were generated by GraphPad Prism (Version 9) using the dose-response equation of variable slope (four parameters).

SW620 cells = assay: 3D cell growth inhibition of SW620 cells carrying endogenous KRAS G12V mutation (CellTiter-Glo 3D, GI50); type: cell-based; details: Homo sapiens, SW-620, 144 h, read-out: SW620 3D cell growth GI50
Procedure: The following day, the test compound was administered to the cells by using 1000× compound stock solution prepared in DMSO at various concentrations. 1000× compound stock solution was first diluted in culturing medium to 10×, then 10 μL compound medium was added to each well in the cell plates. After administration of the compound, the cells were then incubated at 37° C. for 6 days. Upon completion, the plates were equilibrated at room temperature for approximately 10 minutes. 100 μL of CellTiter-Glo® 3D Reagent (Promega) was added to each well. The plates were then incubated at room temperature for 30 minutes and luminescence was recorded by EnSpire plate reader (PerkinElmer).

KRAS-G12V/RAF1 = KRAS-G12V/RAF1 (Homo sapiens (Human), UniProt P01116, G12V); assay: KRAS/RAF1 binding inhibition assay (AlphaScreen)
Procedure: Binding affinity against GTP-bound KRAS of the compounds disclosed herein was measured by monitoring the interaction of guanosine 5′-[β,γ-imido]triphosphate-bound (GppNHp-bound) KRAS with the RBD domain of RAF1 in the presence of the test compound. […] The test compounds in 2% DMSO (final concentration) at various concentrations were then added to the reaction mixture and incubated for 60 minutes at 4° C.
Raw ALphaScreen data were converted to a percentage of inhibition (relative to DMSO) using the following equations: • a) For a given test compound concentration X: […]
The IC50 values were determined by nonlinear regression of plots of [inhibitor] vs. percentage of inhibition with variable slope, analyzed using GraphPad Prism (Version 9).

KRAS G12V, sequence (P01116-2 other isoform, or with tags, fused parts or gaps G12V): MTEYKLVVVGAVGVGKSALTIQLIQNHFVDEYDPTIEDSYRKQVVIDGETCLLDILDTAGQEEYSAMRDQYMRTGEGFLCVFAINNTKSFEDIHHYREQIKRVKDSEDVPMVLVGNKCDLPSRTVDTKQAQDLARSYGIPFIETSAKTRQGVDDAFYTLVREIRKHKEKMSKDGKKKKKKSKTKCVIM
KRAS-G12V/RAF1, sequence (P01116-2 other isoform, or with tags, fused parts or gaps G12V): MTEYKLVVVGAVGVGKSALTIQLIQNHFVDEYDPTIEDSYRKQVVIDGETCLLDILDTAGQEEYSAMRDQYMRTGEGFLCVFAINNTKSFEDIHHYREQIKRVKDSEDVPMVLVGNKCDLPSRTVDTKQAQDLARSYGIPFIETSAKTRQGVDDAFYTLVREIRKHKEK

SMILES | DC50 (KRAS G12V) | GI50 (SW620 cells; SW620 cells, 6 days) | GI50 (SW620 cells) | IC50 (KRAS-G12V/RAF1)
CCc1c(F)ccc2cc(O)cc(-c3ncc4c(N5CCC[C@@](C)(O)C5)nc(OCC5(CN6CCC(N7CC(CN8CCN(c9ccc(C%10CCC(=O)NC%10=O)cc9)CC8)C7)CC6)CC5)nc4c3F)c12 (stereo partly drawn) [Compound 21, 3-(4-(4-((1-(1-((1-(((7-(8-ethyl-7-fluoro-3-hydroxynaphthalen-1-yl)-8-fluoro-4-((R)-3-hydroxy-3-methylpiperidin-1-yl)pyrido[4,3-d]pyrimidin-2-yl)oxy)methyl)cyclopropyl)methyl)piperidin-4-yl)azetidin-3-yl)methyl)piperazin-1-yl)phenyl)piperidine-2,6-dione] | > 100 nM | > 100 nM |  | 
CCc1c(F)ccc2cc(O)cc(-c3ncc4c(N5CCC[C@@](C)(OC)C5)nc(OCC5(CN6CCC7(CC6)CC(CN6CCN(c8ccc9c(c8)CN([C@H]8CCC(=O)NC8=O)C9=O)CC6)C7)CC5)nc4c3F)c12 [Compound 36, (S)-3-(5-(4-((7-((1-(((7-(8-ethyl-7-fluoro-3-hydroxynaphthalen-1-yl)-8-fluoro-4-((R)-3-methoxy-3-methylpiperidin-1-yl)pyrido[4,3-d]pyrimidin-2-yl)oxy)methyl)cyclopropyl)methyl)-7-azaspiro[3.5]nonan-2-yl)methyl)piperazin-1-yl)-1-oxoisoindolin-2-yl)piperidine-2,6-dione] | > 100 nM | > 100 nM |  | 
CCc1c(F)ccc2cc(O)cc(-c3ncc4c(N5CCC[C@]6(CCO6)C5)nc(OCC5(CN6CC7(CCC(N8CCN(c9cc(F)c(C%10CCC(=O)NC%10=O)c(F)c9)CC8)CC7)C6)CC5)nc4c3F)c12 (stereo partly drawn) [Compound 85, 3-(4-(4-(2-((1-(((7-(8-ethyl-7-fluoro-3-hydroxynaphthalen-1-yl)-8-fluoro-4-((S)-1-oxa-6-azaspiro[3.5]nonan-6-yl)pyrido[4,3-d]pyrimidin-2-yl)oxy)methyl)cyclopropyl)methyl)-2-azaspiro[3.5]nonan-7-yl)piperazin-1-yl)-2,6-difluorophenyl)piperidine-2,6-dione] | 1 to 10 nM | < 10 nM |  | 
CCc1c(F)ccc2cc(O)cc(-c3ncc4c(N5CCC[C@@](C)(O)C5)nc(OCC5(CN6CCC7(CC6)CC(CN6Cc8ccc(C9CCC(=O)NC9=O)cc8C6)C7)CC5)nc4c3F)c12 (stereo partly drawn) [Compound 34, 3-(2-((7-((1-(((7-(8-ethyl-7-fluoro-3-hydroxynaphthalen-1-yl)-8-fluoro-4-((R)-3-hydroxy-3-methylpiperidin-1-yl)pyrido[4,3-d]pyrimidin-2-yl)oxy)methyl)cyclopropyl)methyl)-7-azaspiro[3.5]nonan-2-yl)methyl)isoindolin-5-yl)piperidine-2,6-dione] | > 100 nM | > 100 nM |  | 
C[C@@]1(O)CCCN(c2nc(OCC3(CN4CCC5(CC4)CC(CN4CCN(c6ccc7c(c6)CN([C@H]6CCC(=O)NC6=O)C7=O)CC4)C5)CC3)nc3c(F)c(-c4cc(O)cc5ccc(F)c(Cl)c45)ncc23)C1 [Compound 157, (S)-3-(5-(4-((7-((1-(((7-(8-chloro-7-fluoro-3-hydroxynaphthalen-1-yl)-8-fluoro-4-((R)-3-hydroxy-3-methylpiperidin-1-yl)pyrido[4,3-d]pyrimidin-2-yl)oxy)methyl)cyclopropyl)methyl)-7-azaspiro[3.5]nonan-2-yl)methyl)piperazin-1-yl)-1-oxoisoindolin-2-yl)piperidine-2,6-dione] | < 1 nM | < 10 nM |  | 
CCc1c(F)ccc2cc(O)cc(-c3ncc4c(N5CCCC6(CCO6)C5)nc(OCC5(CN6CCC(CN7CC(N8CCN(c9ccc%10c(c9)CN([C@H]9CCC(=O)NC9=O)C%10=O)CC8)C7)CC6)CC5)nc4c3F)c12 (stereo partly drawn) [Compound 37, (3S)-3-(5-(4-(1-((1-((1-(((7-(8-ethyl-7-fluoro-3-hydroxynaphthalen-1-yl)-8-fluoro-4-(1-oxa-6-azaspiro[3.5]nonan-6-yl)pyrido[4,3-d]pyrimidin-2-yl)oxy)methyl)cyclopropyl)methyl)piperidin-4-yl)methyl)azetidin-3-yl)piperazin-1-yl)-1-oxoisoindolin-2-yl)piperidine-2,6-dione] | 1 to 10 nM | < 10 nM |  | 
CCc1c(F)ccc2cc(O)cc(-c3ncc4c(N5CCCNC(=O)C5)nc(OCC5(CN6CCC7(CC6)CC(CN6CCN(c8ccc9c(c8)CN([C@H]8CCC(=O)NC8=O)C9=O)CC6)C7)CC5)nc4c3F)c12 [Compound 93, (S)-3-(5-(4-((7-((1-(((7-(8-ethyl-7-fluoro-3-hydroxynaphthalen-1-yl)-8-fluoro-4-(3-oxo-1,4-diazepan-1-yl)pyrido[4,3-d]pyrimidin-2-yl)oxy)methyl)cyclopropyl)methyl)-7-azaspiro[3.5]nonan-2-yl)methyl)piperazin-1-yl)-1-oxoisoindolin-2-yl)piperidine-2,6-dione] | > 100 nM | > 100 nM |  | 
CCc1c(F)ccc2cc(O)cc(-c3ncc4c(N5CCC[C@@](C)(O)C5)nc(OCC5(CN6CC(N7CC8(CN(c9ccc%10c(c9)CN(C9CCC(=O)NC9=O)C%10=O)C8)C7)C6)CC5)nc4c3F)c12 (stereo partly drawn) [Compound 158, 3-(5-(6-(1-((1-(((7-(8-ethyl-7-fluoro-3-hydroxynaphthalen-1-yl)-8-fluoro-4-((R)-3-hydroxy-3-methylpiperidin-1-yl)pyrido[4,3-d]pyrimidin-2-yl)oxy)methyl)cyclopropyl)methyl)azetidin-3-yl)-2,6-diazaspiro[3.3]heptan-2-yl)-1-oxoisoindolin-2-yl)piperidine-2,6-dione] | 1 to 10 nM | < 10 nM |  | 
CCc1c(F)ccc2cc(O)cc(-c3ncc4c(N5CCCOC6CC65)nc(OCC5(CN6CCC7(CC6)CC(CN6CCN(c8ccc9c(c8)CN([C@H]8CCC(=O)NC8=O)C9=O)CC6)C7)CC5)nc4c3F)c12 (stereo partly drawn) [Compound 165, (3S)-3-(5-(4-((7-((1-(((4-(2-oxa-6-azabicyclo[5.1.0]octan-6-yl)-7-(8-ethyl-7-fluoro-3-hydroxynaphthalen-1-yl)-8-fluoropyrido[4,3-d]pyrimidin-2-yl)oxy)methyl)cyclopropyl)methyl)-7-azaspiro[3.5]nonan-2-yl)methyl)piperazin-1-yl)-1-oxoisoindolin-2-yl)piperidine-2,6-dione] | 1 to 10 nM |  | 10 to 100 nM | 
Cc1cc(N)nc(-c2c(Cl)c3c4c(nc(OCC5(CN6CCC7(CC6)CC(CN6CCN(c8ccc9c(c8)CN([C@H]8CCC(=O)NC8=O)C9=O)CC6)C7)CC5)nc4c2F)N(C(C)c2cccnc2N)CCO3)c1C(F)(F)F (stereo partly drawn) [Compound 5, (3S)-3-(5-(4-((7-((1-(((9-(6-amino-4-methyl-3-(trifluoromethyl)pyridin-2-yl)-4-(1-(2-aminopyridin-3-yl)ethyl)-8-chloro-10-fluoro-5,6-dihydro-4H-[1,4]oxazepino[5,6,7-de]quinazolin-2-yl)oxy)methyl)cyclopropyl)methyl)-7-azaspiro[3.5]nonan-2-yl)methyl)piperazin-1-yl)-1-oxoisoindolin-2-yl)piperidine-2,6-dione] | > 100 nM | > 100 nM |  | 
CCc1c(F)ccc2cc(O)cc(-c3ncc4c(N5CCOC[C@](C)(O)C5)nc(OCC5(CN6CCC7(CC6)CC(CN6CCN(c8ccc9c(c8)CN([C@H]8CCC(=O)NC8=O)C9=O)CC6)C7)CC5)nc4c3F)c12 [Compound 113, (S)-3-(5-(4-((7-((1-(((7-(8-ethyl-7-fluoro-3-hydroxynaphthalen-1-yl)-8-fluoro-4-((R)-6-hydroxy-6-methyl-1,4-oxazepan-4-yl)pyrido[4,3-d]pyrimidin-2-yl)oxy)methyl)cyclopropyl)methyl)-7-azaspiro[3.5]nonan-2-yl)methyl)piperazin-1-yl)-1-oxoisoindolin-2-yl)piperidine-2,6-dione] | > 100 nM |  |  | > 200 nM
